# Source: patent US9139532B2, “Pyrazolyl guanidine F1F0-atpase inhibitors and therapeutic uses thereof” (Lycera Corporation, priority 2010, dated 2015)
# Read-outs that look alike come from different tables or passages of the source.
# How the values were obtained:
# Ramos cells = assay: Cytotoxicity in Ramos cells; assay type: cell-based; conditions: cytotoxicity in Ramos cells, read-out: Ramos Cell EC50
# F1F0-ATPase = biological target: T1, F1F0-ATPase (Bos taurus, UniProt P13621); assay: Inhibition of F1F0-ATPase activity in synthesizing ATP; assay type: biochemical; conditions: inhibition of ATP synthesis by F1F0-ATPase; read-out: ATP Syn IC50
# T1 construct: from tissue
IC50 (F1F0-ATPase),Structure (SMILES),EC50 (Ramos cells; Homo sapiens),EC50 (Ramos cells)
< 10 µM,COCC(C)(C)NC(=NC(=O)c1ccc(F)cc1)Nc1cc(-c2ccc(F)cc2)n[nH]1 [Compound A-505],< 10 µM,–
< 10 µM,COCCOCC(C)(C)N/C(=N/C(=O)c1cccc(C#N)c1)Nc1cc(-c2ccc(F)cc2)n[nH]1 [Compound A-506],–,< 10 µM
< 10 µM,CC(C)(C)N/C(=N/C(=O)c1ccc(O)cc1)Nc1cc(-c2ccc(F)cc2)n[nH]1 [Compound A-509],–,< 10 µM
< 10 µM,N#Cc1cccc(C(=O)/N=C(\Nc2cc(-c3ccc(F)cc3)[nH]n2)N[C@@H]2CCOC2)c1 [Compound A-510],–,< 10 µM
< 10 µM,O=C(N=C(Nc1cc(-c2ccc(F)cc2)[nH]n1)NC1CCOC1)c1ccc(F)cc1 (centres unmarked) [Compound A-511],–,< 10 µM
< 10 µM,CC(C)NC(=NC(=O)c1ccc(F)cc1)Nc1cc(-c2ccc(F)cc2)[nH]n1 [Compound A-512],< 10 µM,–
< 10 µM,CC(C)CN/C(=N/C(=O)c1ccc(F)cc1)Nc1cc(-c2ccc(F)cc2)[nH]n1 [Compound A-513],–,< 10 µM
< 10 µM,CC(C)(C)CN/C(=N/C(=O)c1ccc(F)cc1)Nc1cc(-c2ccc(F)cc2)[nH]n1 [Compound A-514],–,< 10 µM
< 10 µM,COc1ccc(C(=O)/N=C(/NCC(C)(C)C)Nc2cc(-c3ccc(F)cc3)[nH]n2)cc1 [Compound A-515],–,< 10 µM
< 10 µM,COc1cccc(C(=O)N=C(NCC(C)(C)C)Nc2cc(-c3ccc(F)cc3)n[nH]2)c1 [Compound A-516],< 10 µM,–
< 10 µM,CC(C)(C)CN/C(=N/C(=O)c1cccc(C#N)c1)Nc1cc(-c2ccc(F)cc2)[nH]n1 [Compound A-517],–,< 10 µM
< 10 µM,COc1ccc(C(=O)N=C(Nc2cc(-c3ccc(F)cc3)n[nH]2)NC2CCCC2)cc1 [Compound A-518],< 10 µM,–
< 10 µM,COc1cccc(C(=O)N=C(Nc2cc(-c3ccc(F)cc3)n[nH]2)NC2CCCC2)c1 [Compound A-519],< 10 µM,–
< 10 µM,N#Cc1cccc(C(=O)/N=C(\Nc2cc(-c3ccc(F)cc3)[nH]n2)NC2CCCC2)c1 [Compound A-520],–,< 10 µM
< 10 µM,O=C(N=C(Nc1cc(-c2ccc(F)cc2)n[nH]1)NC1CCCC1)c1ccc(F)cc1 [Compound A-521],< 10 µM,–
< 10 µM,CC(C)(C)CNC(=NC(=O)c1ccc(F)c(F)c1)Nc1cc(-c2ccc(F)cc2)n[nH]1 [Compound A-522],< 10 µM,–
< 10 µM,COc1ccc(C(=O)/N=C(\Nc2cc(-c3ccc(F)cc3)[nH]n2)NC(C)C)cc1 [Compound A-523],–,> 10 µM
< 10 µM,COc1cccc(C(=O)/N=C(\Nc2cc(-c3ccc(F)cc3)[nH]n2)NC(C)C)c1 [Compound A-524],–,< 10 µM
< 10 µM,CC(C)(C)NC(=NC(=O)c1cccc(O)c1)Nc1cc(-c2ccc(F)cc2)n[nH]1 [Compound A-525],< 10 µM,–
< 10 µM,COC[C@H](C)N/C(=N/C(=O)c1cccc(C#N)c1)Nc1cc(-c2ccc(F)cc2)[nH]n1 [Compound A-526],–,> 10 µM

IC50 (F1F0-ATPase),Structure (SMILES),EC50 (Ramos cells; Homo sapiens),EC50 (Ramos cells)
< 10 µM,CC(C)(C)NC(=NC(=O)c1cccc(C#N)c1)Nc1cc(-c2ccc(F)cc2)n[nH]1 [Compound A-527],< 10 µM,–
< 10 µM,COCC(C)NC(=NC(=O)c1ccc(C#N)cc1)Nc1cc(-c2ccc(F)cc2)n[nH]1 (centres unmarked) [Compound A-528],> 10 µM,–
< 10 µM,CC(C)(C)N/C(=N/C(=O)c1ccc(C#N)cc1)Nc1cc(-c2ccc(F)cc2)[nH]n1 [Compound A-529],–,> 10 µM
< 10 µM,CC(C)(CO)N/C(=N/C(=O)c1ccc(F)cc1)Nc1cc(C(F)(F)F)[nH]n1 [Compound A-531],–,> 10 µM
< 10 µM,O=C(N=C(Nc1cc(C(F)(F)F)n[nH]1)N1CCCC1)c1ccc(C(F)(F)F)cc1 [Compound A-532],> 10 µM,–
< 10 µM,COC[C@H](C)NC(=NC(=O)c1ccc(F)cc1)Nc1cc(-c2ccc(F)cc2)n[nH]1 [Compound A-533],< 10 µM,–
< 10 µM,COC[C@H](C)N/C(=N/C(=O)c1ccc(C)cc1)Nc1cc(C(F)(F)F)[nH]n1 [Compound A-534],–,< 10 µM
< 10 µM,COC[C@H](C)N/C(=N/C(=O)c1ccc(C)c(F)c1)Nc1cc(C(F)(F)F)[nH]n1 [Compound A-535],–,< 10 µM
< 10 µM,COC[C@H](C)N/C(=N/C(=O)c1ccc(OC)cc1)Nc1cc(C(F)(F)F)[nH]n1 [Compound A-536],–,< 10 µM
< 10 µM,COCC(C)NC(=NC(=O)c1cccc(OC)c1)Nc1cc(C(F)(F)F)n[nH]1 (centres unmarked) [Compound A-537],< 10 µM,–
< 10 µM,CC(C)(CO)N/C(=N/C(=O)c1ccc(F)cc1)Nc1cc(-c2ccc(F)cc2)n[nH]1 [Compound A-538],> 10 µM,–
< 10 µM,COc1ccc(C(=O)/N=C(\Nc2cc(-c3ccc(F)cc3)[nH]n2)NC(C)(C)C)cc1 [Compound A-539],–,< 10 µM
< 10 µM,COc1cccc(C(=O)N=C(Nc2cc(-c3ccc(F)cc3)n[nH]2)NC(C)(C)C)c1 [Compound A-540],< 10 µM,–
< 10 µM,COc1ccc(C(=O)N=C(NCc2ccc(F)cc2Cl)Nc2cc(C(F)(F)F)n[nH]2)cc1 [Compound A-541],< 10 µM,–
< 10 µM,COc1cccc(C(=O)N=C(NCc2ccc(F)cc2Cl)Nc2cc(C(F)(F)F)n[nH]2)c1 [Compound A-542],< 10 µM,–
< 10 µM,COc1ccccc1C(=O)N=C(NCc1ccc(F)cc1Cl)Nc1cc(C(F)(F)F)n[nH]1 [Compound A-543],< 10 µM,–
< 10 µM,CC(C)(C)NC(=NC(=O)c1ccccc1)Nc1cc(C(F)(F)F)n[nH]1 [Compound A-544],< 10 µM,–
< 10 µM,O=C(/N=C(\Nc1cc(C(F)(F)F)[nH]n1)NC1CCCC1)c1ccccc1 [Compound A-545],–,< 10 µM
< 10 µM,Cc1ccc(C(=O)/N=C(\Nc2cc(C(F)(F)F)[nH]n2)NC2CCCC2)cc1F [Compound A-546],–,< 10 µM
< 10 µM,Cc1ccc(C(=O)/N=C(\Nc2cc(C(F)(F)F)[nH]n2)NC2CCCC2)cc1 [Compound A-547],–,< 10 µM

IC50 (F1F0-ATPase),Structure (SMILES),EC50 (Ramos cells; Homo sapiens),EC50 (Ramos cells)
< 10 µM,O=C(N=C(Nc1cc(C(F)(F)F)n[nH]1)NC1CCCC1)c1ccc(F)cc1 [Compound A-548],< 10 µM,–
< 10 µM,Cc1ccc(C(=O)N=C(NCc2ccc(F)cc2Cl)Nc2cc(C(F)(F)F)n[nH]2)cc1 [Compound A-549],< 10 µM,–
< 10 µM,Cc1ccc(C(=O)/N=C(\Nc2cc(-c3ccc(F)cc3)[nH]n2)NC(C)(C)C)cc1 [Compound A-550],–,< 10 µM
< 10 µM,Cc1cccc(C(=O)/N=C(/NCc2ccc(F)cc2Cl)Nc2cc(C(F)(F)F)[nH]n2)c1 [Compound A-551],–,< 10 µM
< 10 µM,Cc1cccc(C(=O)N=C(Nc2cc(-c3ccc(F)cc3)n[nH]2)NC(C)(C)C)c1 [Compound A-552],< 10 µM,–
< 10 µM,Cc1ccc(C(=O)N=C(NCc2ccc(F)cc2Cl)Nc2cc(C(F)(F)F)n[nH]2)cc1F [Compound A-553],< 10 µM,–
< 10 µM,Cc1ccc(C(=O)/N=C(\Nc2cc(-c3ccc(F)cc3)[nH]n2)NC(C)(C)C)cc1F [Compound A-554],–,< 10 µM
< 10 µM,Cc1cc(C(=O)/N=C(/NCc2ccc(F)cc2Cl)Nc2cc(C(F)(F)F)[nH]n2)ccc1F [Compound A-555],–,< 10 µM
< 10 µM,Cc1cc(C(=O)N=C(Nc2cc(-c3ccc(F)cc3)n[nH]2)NC(C)(C)C)ccc1F [Compound A-556],< 10 µM,–
> 10 µM,O=C(/N=C(\Nc1cc(C(F)(F)F)[nH]n1)NC1CCC(O)CC1)c1ccc(Cl)c(F)c1 (centres unmarked) [Compound A-557],–,> 10 µM
< 10 µM,O=C(N=C(Nc1cc(C(F)(F)F)n[nH]1)NC1CCC(F)(F)CC1)c1ccc(Cl)c(F)c1 [Compound A-558],< 10 µM,–
> 10 µM,O=C(N=C(Nc1cc(C(F)(F)F)n[nH]1)NC1CCC(O)CC1)c1ccc(F)c(F)c1 (centres unmarked) [Compound A-559],> 10 µM,–
< 10 µM,O=C(/N=C(\Nc1cc(C(F)(F)F)[nH]n1)NC1CCC(O)CC1)c1ccc(C(F)(F)F)cc1 (centres unmarked) [Compound A-560],–,> 10 µM
< 10 µM,O=C(/N=C(\Nc1cc(C(F)(F)F)[nH]n1)NC1CCC(F)(F)CC1)c1ccc(C(F)(F)F)cc1 [Compound A-561],–,< 10 µM
> 10 µM,"O=C(/N=C(/NCC(O)CO)Nc1cc(C(F)(F)F)n[nH]1)c1ccc(F)cc1 (centres unmarked) [Compound A-562, (Z)—N-(((2,3-Dihydroxypropyl)amino)((3-(trifluoromethyl)-1H-pyrazol-5-yl)amino)methylene)-4-fluorobenzamide]",> 10 µM,–
< 10 µM,"CC(C)(C)N/C(=N/C(=O)c1ccc(C(F)(F)F)cc1)Nc1cc(-c2ccccc2O)n[nH]1 [Compound A-563, (Z)—N-((tert-Butylamino)((3-(2-hydroxyphenyl)-1H-pyrazol-5-yl)amino)methylene)-4-(trifluoromethyl)benzamide]",< 10 µM,–
< 10 µM,"CC(C)(C)N/C(=N/C(=O)c1ccc(C(F)(F)F)cc1)Nc1cc(-c2cccc(O)c2)n[nH]1 [Compound A-564, (Z)—N-((tert-Butylamino)((3-(3-hydroxyphenyl)-1H-pyrazol-5-yl)amino)methylene)-4-(trifluoromethyl)benzamide]",< 10 µM,–
> 10 µM,"CC(C)(C)N/C(=N/C(=O)c1ccc(C(F)(F)F)cc1)Nc1cc(C(=O)O)n[nH]1 [Compound A-565, (Z)-5-(3-(tert-Butyl)-2-(4-(trifluoromethyl)benzoyl)guanidino)-1H-pyrazole-3-carboxylic acid]",> 10 µM,–
